Measured values reported in article PMC11215771 (Journal of Medicinal Chemistry, 2024).
pKd: −log10 of the molar value. Where “and” joins values, the source holds several entries; their conditions need not be identical. Identical values can stand only once.

Legend:
endogenous BACE1 = target: T1, endogenous BACE1 (Mus musculus, UniProt P56818); test: Staining of endogenous BACE1 in brain slices; conditions: 250 nM probe, BACE1+/+ vs BACE1–/– mice
T1 construct: from tissue; host or cells: mouse brain cryosections (hippocampus, cerebellum), C57BL/6J background, P16
Text: Areas with high expression such as the hippocampal MFB[38] or cerebellar Purkinje cells[39],[40] are readily distinguished. However, all primary anti-BACE1 antibodies tested in our lab produced a significant background in samples of BACE1 knockout mice.[20],[23] […] We wondered if our new Alexa-C3 compounds could outperform existing probes in endogenous tissue. […] Close to the hilus, we depicted the MFB additionally at higher magnification (Figure 4B). […] From this set of data and from previous experiments using anti-BACE1 antibodies and SiR-BACE1 we calculated the ratio of the signal in the hilar region to the signal in the molecular layer (Figure 4C), since the molecular layer (red box in Figure 4C) is more affected by background fluorescence due to the relatively low BACE1 expression level.
(A) Images of the hippocampus depict the mossy fiber bundle (MFB) with high BACE1 expression with the intervening CA3 pyramidal cell layer (CA3) and proximal dentate gyrus (DG). […] The scale bar represents 200 μm. […]
For quantification of hippocampal BACE1 staining, mean intensities of the mossy fiber bundle were divided by the mean intensity of the molecular layer of the dentate gyrus. Mean intensities were calculated from rectangular regions of interest. In addition, analysis was performed on images of hippocampal BACE1 labeling with SiR-BACE1 recorded previously.[31]

[1] = target: BACE-1 (mouse Protein, recombinant) (Mus musculus, UniProt P56818); test: Nanotemper (Monolith NT.115) binding analysis
Chain of BACE-1 (mouse Protein, recombinant) (P56818 46-457 limits assumed): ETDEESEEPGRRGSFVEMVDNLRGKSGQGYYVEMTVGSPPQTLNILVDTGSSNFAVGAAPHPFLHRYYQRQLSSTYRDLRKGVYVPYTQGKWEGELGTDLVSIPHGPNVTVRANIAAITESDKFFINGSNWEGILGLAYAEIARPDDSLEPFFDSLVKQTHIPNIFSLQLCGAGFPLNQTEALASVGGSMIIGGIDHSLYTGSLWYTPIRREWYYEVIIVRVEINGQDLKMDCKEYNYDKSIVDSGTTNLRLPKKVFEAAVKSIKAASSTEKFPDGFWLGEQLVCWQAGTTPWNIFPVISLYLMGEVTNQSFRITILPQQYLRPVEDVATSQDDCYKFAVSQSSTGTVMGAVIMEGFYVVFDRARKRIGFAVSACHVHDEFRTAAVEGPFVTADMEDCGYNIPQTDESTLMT
Procedure: For binding analysis, the Monolith NT.115 (Nanotemper) was used. BACE-1 (mouse Protein, recombinant, life technologies, 50002-M08H-250, LCL10JA2204)) was dissolved in 50 mM HEPES/100 mM NaCl, pH 5 to a concentration of 20 μM. […] Samples were loaded on standard capillaries (Nanotemper, MO-K022) and measured in triplicate at 22 °C, using 1%/60% LED power for Alexa488/Alexa568 and 10% MST power. Fluorescence was plotted against protein concentrations.

T1 sequence (P56818 46-501): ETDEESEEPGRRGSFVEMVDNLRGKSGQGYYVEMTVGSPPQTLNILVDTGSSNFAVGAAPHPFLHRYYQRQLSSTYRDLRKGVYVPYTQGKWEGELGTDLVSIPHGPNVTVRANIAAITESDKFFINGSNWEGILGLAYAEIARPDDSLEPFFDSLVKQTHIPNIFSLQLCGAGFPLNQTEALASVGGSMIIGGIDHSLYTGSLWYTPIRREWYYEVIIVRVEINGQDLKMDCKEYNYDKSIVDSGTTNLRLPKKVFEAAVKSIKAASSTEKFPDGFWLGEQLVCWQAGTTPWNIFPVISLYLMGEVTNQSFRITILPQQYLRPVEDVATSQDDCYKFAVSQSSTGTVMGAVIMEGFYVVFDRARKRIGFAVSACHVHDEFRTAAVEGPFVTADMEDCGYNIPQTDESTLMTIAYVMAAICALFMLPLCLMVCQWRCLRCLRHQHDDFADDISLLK

labeling of endogenous BACE1 in brain slices (endogenous BACE1) | pKd [1] | fluorescence reading, single replicates ([1]; BACE1 concentration 0.305 (unit not given; 0.3–5000 nM), triplicate) | fluorescence reading, single replicates ([1]; BACE1 concentration 0.61, triplicate) | fluorescence reading, single replicates ([1]; BACE1 concentration 1.221, triplicate) | fluorescence reading, single replicates ([1]; BACE1 concentration 2.441, triplicate) | fluorescence reading, single replicates ([1]; BACE1 concentration 4.883, triplicate) | fluorescence reading, single replicates ([1]; BACE1 concentration 9.766, triplicate) | fluorescence reading, single replicates ([1]; BACE1 concentration 19.531, triplicate) | fluorescence reading, single replicates ([1]; BACE1 concentration 39.062, triplicate) | fluorescence reading, single replicates ([1]; BACE1 concentration 78.125, triplicate) | fluorescence reading, single replicates ([1]; BACE1 concentration 156.25, triplicate) | fluorescence reading, single replicates ([1]; BACE1 concentration 312.5, triplicate) | fluorescence reading, single replicates ([1]; BACE1 concentration 625, triplicate) | fluorescence reading, single replicates ([1]; BACE1 concentration 1250, triplicate) | fluorescence reading, single replicates ([1]; BACE1 concentration 2500, triplicate) | fluorescence reading, single replicates ([1]; BACE1 concentration 5000, triplicate) | SMILES
labeled BACE1 in a typical pattern | 6.00 | 995.235 and 994.451 and 995.188 | 995.092 and 995.228 and 995.025 | 995.123 and 995.217 and 995.055 | 994.777 and 994.504 and 994.766 | 994.407 and 994.774 and 995.083 | 995.092 and 994.263 and 994.945 | 994.925 and 994.824 and 995.417 | 994.869 and 994.87 and 995.275 | 995.397 and 995.08 and 995.109 | 995.324 and 994.996 and 995.206 | 995.935 and 995.418 and 995.988 | 996.951 and 996.59 and 996.649 | 999.327 and 998.59 and 999.026 | 1002.784 and 1002.705 and 1002.138 | 1000.96 and 1001.179 and 1001.396 | C[C@@H](NC(=O)c1cc(C(=O)N[C@@H](Cc2ccccc2)[C@H](O)CNC2CC2)cc(N(C)S(=O)(=O)CCCNC(=O)c2ccc(C(=O)O)c(-c3c4ccc(=N)c(S(=O)(=O)O)c-4oc4c(S(=O)(=O)O)c(N)ccc34)c2)c1)c1ccccc1 [2-(6-Amino-3-iminio-4,5-disulfo-3H-xanthen-9-yl)-4-((3-(N-(3-(((2S,3R)-4-(cyclopropylamino)-3-hydroxy-1-phenylbutan-2-yl)carbamoyl)-5-(((R)-1-phenylethyl)carbamoyl)phenyl)-N-methylsulfamoyl)propyl)carbamoyl)benzoate]
unsuccessful |  |  |  |  |  |  |  |  |  |  |  |  |  |  |  |  | C[C@@H](NC(=O)c1cc(C(=O)N[C@@H](Cc2ccccc2)[C@H](O)CNC2CC2)cc(N(C)S(=O)(=O)CCCNC(=O)CCCCCC2(C)C(/C=C/C=C/C=C3/N(CCCS(=O)(=O)O)c4ccc(S(=O)(=O)O)cc4C3(C)C)=[N+](CCCS(=O)(=O)[O-])c3ccc(S(=O)(=O)O)cc32)c1)c1ccccc1 (stereo partly drawn)
